Results taken from patent publication EP0450066B1, “CARBOSTYRIL DERIVATIVES” (OTSUKA PHARMACEUTICAL CO., LTD., priority 1988, dated 1989).
Counter-ions that a name gives are not always drawn. Like-named read-outs stand apart in the source and are kept apart here.

How the values were obtained:
platelets = test: Platelet aggregation inhibitory activity (method by Born et al., platelet rich plasma, ADP or collagen as inducer); type: cell-based; settings: rabbit PRP, 400,000 platelets/µl, 37°C
Protocol: This sample was subjected to centrifugation at 1,100 rpm for 10 minutes to obtain a platelet rich plasma (PRP). The remaining sample was subjected to further centrifugation at 3,000 rpm for 15 minutes to obtain a platelet poor plasma (PPP).
The number of platelets in the PRP obtained above was counted by coulter Counter manufactured by Coulter Electronics Inc. Then, the PRP was diluted with the PPP so that the number of platelets in the PRP after dilution became 400,000 platelets/µl, whereby a PRP solution was prepared.
There were placed in a cell for aggregation determination, 2 µl of a solution containing a test compound at a given concentration and 200 µl of the PRP solution prepared above. The cell was heated at 37°C for 1 minute. Then, to the cell contents was added 20 µl of adenosine diphosphate (ADP, manufactured by Sigma Co.) or 20 µl of a collagen suspension (Collagen Reagent Horm, manufactured by Hormon-Chemie Co.) to induce aggregation of platelets. Then, the platelet aggregation was determined for change in transmittance, and a platelet aggregation curve was drawn.
The mixture aggregation rate (MAR) of platelets was calculated from the platelet aggregation curve, using the following formula.
In the above, MAR was calculated also for a control containing no test compound. Using this MAR as a base, the platelet aggregation inhibitions rate (%) of each test compound at various concentrations were calculated from the following formula. Inhibition rate (%) = [1-(MAR of test compound-containing PRP)/(MAR of test compound-free PRP)] x100 [formula]

mongrel dogs = test: Increase in heart rate in anesthetized mongrel dogs; type: in vivo; settings: mongrel dogs under pentobarbital sodium anesthesia, artificial breathing; 30 µg/kg through cannula in femoral artery
Protocol: Increase in heart rate as well as hypotensive activity of test compounds were measured as follows by using mongrel dogs (body weight = 10-20 kg). That is, mongrel dogs were put under anesthesia by intravenous administration of pentobarbital sodium, then fixed at the back position, and subjected to testing under artificial breathing condition. Blood pressure was measured by using a blood pressure transducer (P23XL, manufactured by Gould Statham Instruments, Inc.) via a cannula inserted into the femoral artery of the mongrel dog. Heart rate was measured via a tachometer, based on the pulse wave of the blood pressure. These signals were recorded on a thermal-pen type recorder (Recti-Horiz 8K, manufactured by Nihon Denki San-ei).
The test compounds mentioned in the Pharmacological Test I were also used as test compounds in this Test-II. Each of them was dissolved in a mixed solution of N,N'-dimenthylformamide and a physiological saline solution, and each resulting solution was administered to the test dogs through the cannulas inserted into their femoral arteries, in an amount of 30 µg (test compound)/kg of body weight. The heart rate of each dog after the administration of test compound was measured as mentioned above, whereby the maximum increase in heart rate was obtained.

[1] = aggregation induced by ADP, final concentration 7.5 µM, read-out: IC50 (µM) ADP
[2] = aggregation induced by collagen, final concentration 20 µg/ml, read-out: IC50 (µM) Collagen
[3] = Oryctolagus cuniculus, Platelet, aggregation induced by ADP, final concentration 7.5 µM, read-out: IC50 (µM) ADP
[4] = Oryctolagus cuniculus, Platelet, aggregation induced by collagen, final concentration 20 µg/ml, read-out: IC50 (µM) Collagen

| IC50 (platelets; [3]) | IC50 (platelets; [4]) | Compound | IC50 (platelets; [1]) | IC50 (platelets; [2]) | Maximum increase in heart rate (beats/min) (Administration amount = 30 µg/kg) (mongrel dogs) | also measured |
| --- | --- | --- | --- | --- | --- | --- |
| – | – | 6-[4-(N-cyclooctylmethyl-N-diethylamidomethyl)-aminocarbonyl]butoxy}carbostyril [Test compound 19] | 2.1 µM | 1.3 µM | – | – |
| – | – | 6-[4-{N-cyclohexylmethyl-N-[2-(1-pyrrolidinyl)-ethyl]aminocarbonyl}butoxy]carbostyril [Example 1] | 3.4 µM | 1.1 µM | – | – |
| – | – | 6-[4-{N-cyclooctylmethyl-N-[2-(2β-dimethylamino-methyl-1-pyrrolidinyl)ethyl]aminocarbonyl}butoxy]-carbostyril difumarate [Test compound 10] | 3.9 µM | 1.8 µM | – | – |
| – | – | O=C(CCCCOc1ccc2[nH]c(=O)ccc2c1)N(CCN1CCCCC1CO)CC1CCCCCCC1 (stereo not drawn) [Example 4] | 2.7 µM | 1.6 µM | 6 beats/min | – |
| – | – | O=C(CCCCOc1ccc2[nH]c(=O)ccc2c1)N(CCN1CCC(O)C1)CC1CCCCCCC1.O=C(O)C(=O)O (stereo not drawn) [Example 6] | 3.5 µM | 1.3 µM | 5 beats/min | – |
| – | – | O=C(CCCCOc1ccc2[nH]c(=O)ccc2c1)N(CCN1CCOCC1)CC1CCCCCCC1 [Example 7] | 1.5 µM | 0.65 µM | – | – |
| – | – | CC1CCCC(C)N1CCN(CC1CCCCCCC1)C(=O)CCCCOc1ccc2[nH]c(=O)ccc2c1 (stereo not drawn) [Example 9] | 4.5 µM | 1.6 µM | 0 beats/min | – |
| – | – | O=C(CCCCOc1ccc2[nH]c(=O)ccc2c1)N(CCn1ccnc1)CC1CCCCC1 [Example 12] | 6 µM | 3.2 µM | 12 beats/min | – |
| 5 µM | – | CCN(CC)CCCN(CC1CCCCCCC1)C(=O)CCCCOc1ccc2[nH]c(=O)ccc2c1 [Example 17] | – | 2.8 µM | – | – |
| 1.5 µM | 0.71 µM | CCN(CC)C(=O)CN(CC1CCCCCCC1)C(=O)CCCCOc1ccc2[nH]c(=O)ccc2c1 [Example 19] | – | – | – | – |
| – | – | CCN(CC)CCN(CC1CCCCCCC1)C(=O)CCCCOc1ccc2c(c1)CCC(=O)N2 [Example 20] | 21.2 µM | 7 µM | 4 beats/min | – |
| 1.2 µM | 0.8 µM | CCN(CC)C[C@H](CO)N(CC1CCCCCCC1)C(=O)CCCCOc1ccc2[nH]c(=O)ccc2c1 [Example 22] | – | – | – | – |
| 2.2 µM | 1.3 µM | CC(=O)NCCN(CC1CCCCCCC1)C(=O)CCCCOc1ccc2[nH]c(=O)ccc2c1 [Example 24] | – | – | – | – |
| 2.1 µM | 1.4 µM | CCN(CCO)CCN(CC1CCCCCCC1)C(=O)CCCCOc1ccc2[nH]c(=O)ccc2c1 [Example 25] | – | – | – | – |
| 3.6 µM | 1.3 µM | C=CCN(CC)CCN(CC1CCCCCCC1)C(=O)CCCCOc1ccc2[nH]c(=O)ccc2c1 [Example 26] | – | – | – | – |
| 2.2 µM | 2.2 µM | O=C(CCCCOc1ccc2[nH]c(=O)ccc2c1)N(CCSC1CCCCO1)CC1CCCCC1 (stereo not drawn) [Example 45] | – | – | – | – |
| 1.1 µM | 0.53 µM | CSCCC(CO)N(CC1CCCCC1)C(=O)CCCCOc1ccc2[nH]c(=O)ccc2c1 (stereo not drawn) [Example 46] | – | – | – | – |
| 0.63 µM | 0.49 µM | CSCCC(COC(C)=O)N(CC1CCCCC1)C(=O)CCCCOc1ccc2[nH]c(=O)ccc2c1 (stereo not drawn) [Example 47] | – | – | – | – |
| – | – | CCN(CC)CCCN(CC1CCCCCCC1)C(=O)CCCCOc1ccc2[nH]c(=O)ccc2c1 [Test compound 17, 6-{4-[N-cyclooctylmethyl-N-(3-diethylaminopropyl)-aminocarbonyl]butoxy}carbostyril oxalate] | – | – | – | IC50 (platelets; aggregation induced by ADP, final concentration 7.5 µM, listed as 28, oxalate, read-out: IC50 (µM) ADP): 2.8 µM; IC50 (platelets; aggregation induced by collagen, final concentration 20 µg/ml, listed as 28, oxalate, read-out: IC50 (µM) Collagen): 1.2 µM |
| – | – | CCN(CC)CCCCN(CC1CCCCCCC1)C(=O)CCCCOc1ccc2[nH]c(=O)ccc2c1.O=C(O)C(=O)O [Test compound 18, 6-{4-[N-cyclooctylmethyl-N-(4-diethylaminobutyl)-aminocarbonyl]butoxy}carbostyril oxalate] | – | – | 2 beats/min | IC50 (platelets; aggregation induced by ADP, final concentration 7.5 µM, listed as 29, oxalate, read-out: IC50 (µM) ADP): 8.3 µM; IC50 (platelets; aggregation induced by collagen, final concentration 20 µg/ml, listed as 29, oxalate, read-out: IC50 (µM) Collagen): 3.7 µM |
| – | – | CCN(CC)CCN(CC1CCCCCCC1)C(=O)CCCCOc1ccc2c(c1)CCC(=O)N2 [Test compound 20, 6-{4-[N-cyclooctylmethyl-N-(2-diethylaminoethyl)-aminocarbonyl]butoxy}3,4-dihydrocarbostyril oxalate] | – | – | – | IC50 (platelets; aggregation induced by ADP, final concentration 7.5 µM, listed as 34, oxalate, read-out: IC50 (µM) ADP): 0.84 µM; IC50 (platelets; aggregation induced by collagen, final concentration 20 µg/ml, listed as 34, oxalate, read-out: IC50 (µM) Collagen): 0.48 µM |
| – | – | CC(=O)NCCN(CC1CCCCCCC1)C(=O)CCCCOc1ccc2[nH]c(=O)ccc2c1 [Test compound 24, 6-{4-[N-cyclooctylmethyl-N-(2-acetylaminoethyl)-aminocarbonyl]butoxy}carbostyril] | – | – | – | IC50 (platelets; aggregation induced by ADP, final concentration 7.5 µM, listed as 42, read-out: IC50 (µM) ADP): 1.9 µM; IC50 (platelets; aggregation induced by collagen, final concentration 20 µg/ml, listed as 42, read-out: IC50 (µM) Collagen): 1.6 µM |

| Compound | IC50 (platelets; [3]) | IC50 (platelets; [4]) | IC50 (platelets; [1]) | IC50 (platelets; [2]) | Maximum increase in heart rate (beats/min) (Administration amount = 30 µg/kg) (mongrel dogs) | also measured |
| --- | --- | --- | --- | --- | --- | --- |
| CCN(CC)CCN(CC1CCCCCCC1)C(=O)CCCCOc1ccc2[nH]c(=O)ccc2c1 [Example 16] | 3 µM | 1.1 µM | – | – | 7 beats/min | – |
| CCN(CC)CCCCN(CC1CCCCCCC1)C(=O)CCCCOc1ccc2[nH]c(=O)ccc2c1 [Example 18] | 6 µM | 4.8 µM | – | – | 5 beats/min | – |
| CCN(CC)C[C@H](C)N(CC1CCCCCCC1)C(=O)CCCCOc1ccc2[nH]c(=O)ccc2c1 [Example 21] | 5.4 µM | 3.2 µM | – | – | 7 beats/min | – |
| O=C(CCCCOc1ccc2[nH]c(=O)ccc2c1)N(CCS)CC1CCCCC1 [Example 44] | 5 µM | 3.6 µM | – | – | 11 beats/min | – |
| O=C(CCCCOc1ccc2[nH]c(=O)ccc2c1)N(CCN1CCC(O)C1)CC1CCCCCCC1 (stereo not drawn) [Test compound 6, 6-[4-{N-cyclooctylmethyl-N-[2-(3-hydroxy-1-pyrrolidinyl)ethyl]aminocarbonyl}butoxy]carbostyril oxalate] | 1.7 µM | 0.5 µM | – | – | – | – |
| O=C(CCCCOc1ccc2[nH]c(=O)ccc2c1)N(CCN1CCC(O)CC1)CC1CCCCCCC1 [Test compound 8, 6-[4-{N-cyclooctylmethyl-N-[2-(4-hydroxy-1-piperidinyl)ethyl]aminocarbonyl}butoxy]carbostyril] | 1.7 µM | 0.7 µM | – | – | – | – |
